# Laboratory results reported in US20240158446A1, “CYCLIC COMPOUND HAVING SELECTIVE INHIBITORY ACTION ON KRAS OVER HRAS AND NRAS” (CHUGAI SEIYAKU KABUSHIKI KAISHA, priority 2021, published 2024).
# Read-outs that look alike come from different tables or passages of the source. Where a SMILES comes first, the peptide text is derived from it. Bridges are numbered along the chain shown (N, C = ends). [ ]: non-standard residue; d: D form. The star is where a group is joined. hPhe(3,5-F2-4-CF3) = N[C@@H](CCc1cc(F)c(C(F)(F)F)c(F)c1)C(=O)O; hPhe(3-Cl-4-CF3) = N[C@@H](CCc1ccc(C(F)(F)F)c(Cl)c1)C(=O)O; NPrPhe(4-CF3) = CCCN[C@@H](Cc1ccc(C(F)(F)F)cc1)C(=O)O; NMeAbu(4,4,4-F3) = CN[C@@H](CC(F)(F)F)C(=O)O; NMeGly(cPent) = CN[C@H](C(=O)O)C1CCCC1; Hyp = O=C(O)[C@@H]1C[C@@H](O)CN1; NMeD = CN[C@@H](CC(=O)O)C(=O)O; NMeL = CN[C@@H](CC(C)C)C(=O)O; Morpholide = C1CN(*)CCO1; NMeA = CN[C@@H](C)C(=O)O; Ac5c = NC1(C(=O)O)CCCC1; Aze = O=C(O)[C@@H]1CCN1; Ac4c = NC1(C(=O)O)CCC1; Sar = CNCC(=O)O
# Tests used:
# [1] = molecular target: GDP-bound KRAS wild-type protein (Homo sapiens, UniProt P01116); test: Binding to KRAS by surface plasmon resonance (SPR), Single Cycle Kinetics; settings: GDP-bound KRAS wild-type protein, read-out: KRAS KD
# Sequence of GDP-bound KRAS wild-type protein (P01116 whole entry): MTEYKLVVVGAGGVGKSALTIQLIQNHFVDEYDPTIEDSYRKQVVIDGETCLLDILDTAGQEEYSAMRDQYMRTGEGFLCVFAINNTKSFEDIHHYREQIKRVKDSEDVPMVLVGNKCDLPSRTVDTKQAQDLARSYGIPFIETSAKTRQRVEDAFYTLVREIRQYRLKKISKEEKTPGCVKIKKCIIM
# [2] = molecular target: GDP-bound NRAS wild-type protein (Homo sapiens, UniProt P01111); test: Binding to NRAS by surface plasmon resonance (SPR), Single Cycle Kinetics; settings: for NRAS/KRAS (ratio of KD value for NRAS to KD value for KRAS) / NRAS/KRAS (ratio of KD value with respect to NRAS to KD value with respect to KRAS): SPR, GDP-bound NRAS wild-type protein vs GDP-bound KRAS wild-type protein
# Sequence of GDP-bound NRAS wild-type protein (P01111 whole entry): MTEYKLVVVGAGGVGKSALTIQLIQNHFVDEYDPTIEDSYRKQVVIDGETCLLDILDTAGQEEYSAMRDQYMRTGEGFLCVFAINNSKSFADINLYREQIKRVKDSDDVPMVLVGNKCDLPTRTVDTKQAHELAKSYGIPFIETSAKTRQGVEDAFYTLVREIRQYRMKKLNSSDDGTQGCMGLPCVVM
# [3] = molecular target: GDP-bound HRAS wild-type protein (Homo sapiens, UniProt P01112); test: Binding to HRAS by surface plasmon resonance (SPR), Single Cycle Kinetics; settings: for HRAS/KRAS (ratio of KD value for HRAS to KD value for KRAS) / HRAS/KRAS (ratio of KD value with respect to HRAS to KD value with respect to KRAS): SPR, GDP-bound HRAS wild-type protein vs GDP-bound KRAS wild-type protein
# Sequence of GDP-bound HRAS wild-type protein (P01112 whole entry): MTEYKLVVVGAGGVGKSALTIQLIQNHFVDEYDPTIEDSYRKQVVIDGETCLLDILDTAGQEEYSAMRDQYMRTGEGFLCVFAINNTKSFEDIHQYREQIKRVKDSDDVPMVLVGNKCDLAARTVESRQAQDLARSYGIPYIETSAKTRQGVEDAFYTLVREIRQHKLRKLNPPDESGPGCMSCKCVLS
# [4] = SPR Single Cycle Kinetics, 1:1 binding model
Structure (SMILES),"Kd ([1]; SPR, Single Cycle Kinetics) [nM]",NRAS/KRAS (ratio of KD value for NRAS to KD value for KRAS) [2],HRAS/KRAS (ratio of KD value for HRAS to KD value for KRAS) [3],"Kd [1, 4] [nM]",further results
CCC[C@H]1C(=O)N[C@@H]([C@@H](C)CC)C(=O)N(C)CC(=O)N(C)[C@H]2C/C=C\CCN(C2=O)[C@@H](Cc2ccc(C)cc2)C(=O)N(C)CC(=O)N[C@@H](CCc2ccc(C(F)(F)F)c(Cl)c2)C(=O)N2C[C@H](OCC)C[C@H]2C(=O)NC2(CC(C)(C)C2)C(=O)N(C)[C@@H](CC(F)(F)F)C(=O)N(C)[C@H](C(=O)N(C)C)CC(=O)N1C [PP2226],0.82,A (a compound having 10 or more and less than 20 is denoted as A),A (a compound having 10 or more and less than 20 is denoted as A),–,–
C#CC[C@H]1C(=O)N[C@@H]([C@@H](C)CC)C(=O)N(C)CC(=O)N(C)[C@H]2C/C=C\CCN(C2=O)[C@@H](Cc2ccc(C(F)(F)F)cc2)C(=O)N(C)CC(=O)N[C@@H](CCc2ccc(C(F)(F)F)c(OC)c2)C(=O)N2CC[C@H]2C(=O)NC2(CC(C)(C)C2)C(=O)N(C)[C@@H](C2CCCC2)C(=O)N(C)[C@H](C(=O)N(C)C)CC(=O)N1C [PP2909],–,–,–,1,"NRAS/KRAS (ratio of KD value with respect to GDP-bound NRAS wild-type protein to KD value with respect to KRAS) ([2]; SPR KD ratio NRAS/KRAS, class symbols): B (a compound having 3 or more and less than 10 is denoted as B); HRAS/KRAS (ratio of KD value with respect to GDP-bound HRAS wild-type protein to KD value with respect to KRAS) ([3]; SPR KD ratio HRAS/KRAS, class symbols): B (a compound having 3 or more and less than 10 is denoted as B)"
CCC[C@H]1C(=O)N[C@@H]([C@@H](C)CC)C(=O)N(C)CC(=O)N(C)[C@H]2C/C=C\CCN(C2=O)[C@@H](Cc2ccc(C)cc2)C(=O)N(C)CC(=O)N[C@@H](CCc2ccc(C(F)(F)F)c(OC)c2)C(=O)N2CC3(CC3)C[C@H]2C(=O)NC2(CC(C)(C)C2)C(=O)N(C)[C@@H](CC(F)(F)F)C(=O)N(C)[C@H](C(=O)N(C)C)CC(=O)N1C [PP3012],1.9,A (a compound having 10 or more and less than 20 is denoted as A),A (a compound having 10 or more and less than 20 is denoted as A),–,–
"CCCN1C(=O)[C@@H]2CCN2C(=O)CN(C)C(=O)[C@H]([C@@H](C)CC)NC(=O)[C@H](CC(C)C)N(C)C(=O)C[C@@H](C(=O)N2CCOCC2)N(C)C(=O)[C@H](CC(F)(F)F)N(C)C(=O)C2(CCCC2)NC(=O)[C@@H]2CCCN2C(=O)[C@H](CCc2cc(F)c(C(F)(F)F)c(F)c2)NC(=O)CN(C)C(=O)[C@@H]1Cc1ccc(C(F)(F)F)cc1 [PP0803] ([NMeL]I[Sar][Aze][NPrPhe(4-CF3)][Sar][hPhe(3,5-F2-4-CF3)]P[Ac5c][NMeAbu(4,4,4-F3)][NMeD]-Morpholide; lactam N-11)",–,–,–,1.7,NRAS/KRAS (ratio of KD value with respect to NRAS to KD value with respect to KRAS) [2]: C (A compound having a KD ratio of 0.1 or more and less than 3 is denoted as C); HRAS/KRAS (ratio of KD value with respect to HRAS to KD value with respect to KRAS) [3]: B (a compound having 3 or more and less than 10 is denoted as B)
CCO[C@@H]1C[C@H]2C(=O)NC3(CCC3)C(=O)N(C)[C@@H](C3CCCC3)C(=O)N(C)[C@H](C(=O)N(C)C)CC(=O)N(C)[C@@H](CC)C(=O)N[C@@H]([C@@H](C)CC)C(=O)N(C)CC(=O)N(C)[C@H]3CCCCN(C3=O)[C@@H](Cc3ccc(C(F)(F)F)cc3)C(=O)N(C)CC(=O)N[C@@H](CCc3ccc(Cl)c(Cl)c3)C(=O)N2C1 [PP0987],0.024,C (A compound having a KD ratio of 0.1 or more and less than 3 is denoted as C),C (A compound having a KD ratio of 0.1 or more and less than 3 is denoted as C),–,–
CCC[C@@H]1C[C@H]2C(=O)NC3(CC(C)(C)C3)C(=O)N(C)[C@@H](C3CCCC3)C(=O)N(C)[C@H](C(=O)N(C)C)CC(=O)N(C)[C@@H](COC)C(=O)N[C@@H]([C@@H](C)CC)C(=O)N(C)CC(=O)N(C)[C@H]3C/C=C\CCN(C3=O)[C@@H](Cc3ccc(C(F)(F)F)cc3)C(=O)N(C)CC(=O)N[C@@H](CCc3ccc(C(F)(F)F)c(Cl)c3)C(=O)N2C1 [PP2275],0.36,A (a compound having 10 or more and less than 20 is denoted as A),A (a compound having 10 or more and less than 20 is denoted as A),–,–
CCC[C@H]1C(=O)N[C@@H]([C@@H](C)CC)C(=O)N(C2CC2)CC(=O)N(C)[C@H]2C/C=C\CCN(C2=O)[C@@H](CC2CCC(F)(F)CC2)C(=O)N(C)CC(=O)N[C@@H](CCc2ccc(C(F)(F)F)c(OC)c2)C(=O)N2C[C@H](OCC)C[C@H]2C(=O)N(C)C2(CCC2)C(=O)N(C)[C@@H](C(CC)CC)C(=O)N(C)[C@H](C(=O)N(C)C)CC(=O)N1C [PP2349],3.8,A (a compound having 10 or more and less than 20 is denoted as A),A (a compound having 10 or more and less than 20 is denoted as A),–,–
CCO[C@@H]1C[C@H]2C(=O)NC3(CC(C)(C)C3)C(=O)N(C)[C@@H](C(CC)CC)C(=O)N(C)C(C(C)C)CC(=O)N(C)[C@@H](CC3CC3)C(=O)N[C@@H]([C@@H](C)CC)C(=O)N(C)CC(=O)N(C)[C@H]3C/C=C\CCN(C3=O)[C@@H](Cc3ccc(C(F)(F)F)cc3)C(=O)N(C)CC(=O)N[C@@H](CCc3cc(F)c(C(F)(F)F)c(F)c3)C(=O)N2C1 (stereo partly drawn) [PP1593],–,–,–,–,"Kd ([1]; SPR, Single Cycle Kinetics, 1:1 binding model): 4.3 nM; NRAS/KRAS (ratio of KD value for NRAS to KD value for KRAS) ([2]; KD ratio class): A (a compound having 10 or more and less than 20 is denoted as A); HRAS/KRAS (ratio of KD value for HRAS to KD value for KRAS) ([3]; KD ratio class): A (a compound having 10 or more and less than 20 is denoted as A)"
CCCN1C(=O)[C@@H]2CCN2C(=O)CN(C)C(=O)[C@H]([C@@H](C)CC)NC(=O)[C@H](CC(C)C)N(C)C(=O)C[C@@H](C(=O)N(C)C)NC(=O)[C@H](C2CCCC2)N(C)C(=O)C2(CCC2)NC(=O)[C@@H]2C[C@@H](OCC)CN2C(=O)[C@H](CCc2ccc(C(F)(F)F)c(Cl)c2)NC(=O)CN(C)C(=O)[C@@H]1Cc1ccc(C(F)(F)F)cc1 [PP0390] ([NMeL]I[Sar][Aze][NPrPhe(4-CF3)][Sar][hPhe(3-Cl-4-CF3)][Hyp](Et)[Ac4c][NMeGly(cPent)]D-NMe2; lactam N-11),–,C (A compound having a KD ratio of 0.1 or more and less than 3 is denoted as C),B (a compound having 3 or more and less than 10 is denoted as B),0.2,–
CCCN1C(=O)[C@@H]2CCN2C(=O)[C@H](C)N(C)C(=O)[C@H]([C@@H](C)CC)NC(=O)[C@H](CC(C)C)N(C)C(=O)C[C@@H](C(=O)N2CCOCC2)N(C)C(=O)[C@H](C2CCCC2)N(C)C(=O)C2(CCCC2)NC(=O)[C@@H]2CCN2C(=O)[C@H](CCc2ccc(C(F)(F)F)c(Cl)c2)NC(=O)CN(C)C(=O)[C@@H]1Cc1ccc(C(F)(F)F)cc1 [PP0281] ([NMeL]I[NMeA][Aze][NPrPhe(4-CF3)][Sar][hPhe(3-Cl-4-CF3)][Aze][Ac5c][NMeGly(cPent)][NMeD]-Morpholide; lactam N-11),–,C (A compound having a KD ratio of 0.1 or more and less than 3 is denoted as C),C (A compound having a KD ratio of 0.1 or more and less than 3 is denoted as C),0.48,–
CCO[C@@H]1C[C@H]2C(=O)NC3(CC(C)(C)C3)C(=O)N(C)[C@@H](C3CCCC3)C(=O)N(C)[C@H](C(=O)N(C)CC)CC(=O)N(C)[C@@H](C3CCC3)C(=O)N[C@@H]([C@@H](C)CC)C(=O)N(C)CC(=O)N(C)[C@H]3C/C=C\CCN(C3=O)[C@@H](Cc3ccc(C(F)(F)F)cc3)C(=O)N(C)CC(=O)N[C@@H](CCc3cc(F)c(C(F)(F)F)c(F)c3)C(=O)N2C1 [PP2038],0.16,A (a compound having 10 or more and less than 20 is denoted as A),A (a compound having 10 or more and less than 20 is denoted as A),–,–
CCC[C@H]1C(=O)N[C@@H](C2CCCC2)C(=O)N(C)CC(=O)N(C)[C@H]2C/C=C\CCN(C2=O)[C@@H](Cc2ccc(C(F)(F)F)cc2)C(=O)N(C)CC(=O)N[C@@H](CCc2ccc(C(F)(F)F)c(Cl)c2)C(=O)N2C[C@H](OCC)C[C@H]2C(=O)NC2(CC(C)(C)C2)C(=O)N(C)[C@@H](C2CCCC2)C(=O)N(C)[C@H](C(=O)N(C)C)CC(=O)N1C [PP2984],0.2,A (a compound having 10 or more and less than 20 is denoted as A),B (a compound having 3 or more and less than 10 is denoted as B),–,–
CC[C@H](C)[C@@H]1NC(=O)[C@H](CC(C)C)N(C)C(=O)C[C@@H](C(=O)N2CCOCC2)N(C)C(=O)[C@H](C2CCCC2)N(C)C(=O)C2(CCOCC2)NC(=O)[C@@H]2CCCN2C(=O)[C@H](CCc2cc(F)c(C(F)(F)F)c(F)c2)NC(=O)CN(C)C(=O)[C@H](Cc2ccc(C(F)(F)F)cc2)N2CCCC[C@@H](C2=O)N(C)C(=O)CN(C)C1=O [PP0564],–,–,–,0.18,NRAS/KRAS (ratio of KD value with respect to NRAS to KD value with respect to KRAS) [2]: B (a compound having 3 or more and less than 10 is denoted as B); HRAS/KRAS (ratio of KD value with respect to HRAS to KD value with respect to KRAS) [3]: B (a compound having 3 or more and less than 10 is denoted as B)
